{"source": "patent US20050250137A1", "about": "“Molecular targets of cancer and aging” (priority 2002, published 2005)", "key": {"[1]": {"system": "immortal (high passage) MDAH041 cells", "type": "cell-based, human"}, "[2]": {"system": "immortal MDAH041 cells", "experiment": "Senescence phenotype (morphology, senescence associated β-galactosidase at pH 6), immortal MDAH041", "type": "cell-based, human", "conditions": "immortal MDAH041 high passage treated with 5AZA-dC (1 μM days 1, 3, 5)", "procedure": "The MDAH041 (p53 frameshift mutation) cell line was derived from primary fibroblasts obtained by skin biopsy from patients with LFS. […] All cells were grown in modified Eagles medium (MEM, Gibco BRL, MD, USA) with 10% fetal calf serum and antibiotics. The CRL1502 cell line was derived from primary fibroblasts obtained by skin biopsy from a normal donor (ATCC 1502, Rockville, Md., USA)."}}}
{"smiles": "Nc1ncn([C@H]2C[C@H](O)[C@@H](CO)O2)c(=O)n1", "note": "[5-aza-dC, 5-aza-2′-deoxycytidine]", "values": [{"measurement": "(2-5′) oligoadenylate synthetase E gene OAS1 expression, MDAH041HP vs. MDAH0411HP 5aza", "setting": "[1]", "value": "1072↑ fold"}, {"measurement": "ALDH1A3 expression, IM vs 5-aza-dC, QP", "setting": "[1]", "value": 7.84, "unit": "fold"}, {"measurement": "CIG49 expression, MDAH041HP vs. MDAH0411HP 5aza", "setting": "[1]", "value": "204↑ fold"}, {"measurement": "CLTB expression, IM vs 5-aza-dC, QP", "setting": "[1]", "value": 2.04, "unit": "fold"}, {"measurement": "CREG expression, IM vs 5-aza-dC, QP", "setting": "[1]", "value": 2.88, "unit": "fold"}, {"measurement": "HSPA2 expression, IM vs 5-aza-dC, QP", "setting": "[1]", "value": 2.74, "unit": "fold"}, {"measurement": "IGFBP3 expression, IM vs 5-aza-dC, QP", "setting": "[1]", "value": 8.29, "unit": "fold"}, {"measurement": "IGFBP4 expression, IM vs 5-aza-dC, QP", "setting": "[1]", "value": 7.00, "unit": "fold"}, {"measurement": "Interferon-induced 17-kDa/15-kDA expression, MDAH041HP vs. MDAH0411HP 5aza", "setting": "[1]", "value": "443↑ fold"}, {"measurement": "Interferon-inducible 56 kDa protein expression, MDAH041HP vs. MDAH0411HP 5aza", "setting": "[1]", "value": "1807↑ fold"}, {"measurement": "Interferon-inducible membrane protein 9-27 (IFITM1) expression, MDAH041HP vs. MDAH0411HP 5aza", "setting": "[1]", "value": "278↑ fold"}, {"measurement": "Interferon-inducible protein p78 expression, MDAH041HP vs. MDAH0411HP 5aza", "setting": "[1]", "value": "480↑ fold"}, {"measurement": "Interferon-regulatory factor 7B expression, MDAH041HP vs. MDAH0411HP 5aza", "setting": "[1]", "value": "20031↑ fold"}, {"measurement": "KIAA1750 expression, IM vs 5-aza-dC, QP", "setting": "[1]", "value": 3.86, "unit": "fold"}, {"measurement": "MGSF expression, MDAH041HP vs. MDAH0411HP 5aza", "setting": "[1]", "value": "800↑ fold"}, {"measurement": "MIF expression, MDAH041HP vs. MDAH0411HP 5aza", "setting": "[1]", "value": "130↑ fold"}, {"measurement": "NDN expression, MDAH041HP vs. MDAH0411HP 5aza", "setting": "[1]", "value": "10↑ fold"}, {"measurement": "OPTN expression, IM vs 5-aza-dC, QP", "setting": "[1]", "value": 9.21, "unit": "fold"}, {"measurement": "SERPINB2 expression, IM vs 5-aza-dC, QP", "setting": "[1]", "value": 12.90, "unit": "fold"}, {"measurement": "STAT 1, 91 kD expression, MDAH041HP vs. MDAH0411HP 5aza", "setting": "[1]", "value": "158↑ fold"}, {"measurement": "STAT1α expression, IM vs 5-aza-dC, QP", "setting": "[1]", "value": 119.85, "unit": "fold"}, {"measurement": "TNFAIP2 expression, IM vs 5-aza-dC, QP", "setting": "[1]", "value": 6.10, "unit": "fold"}, {"measurement": "additional increase in hTERT RNA expression", "setting": "[1]", "value": 17, "unit": "fold"}, {"measurement": "senescent phenotype of treated cells", "setting": "[2]", "value": "had flat morphology, contained lipofuscin granules, and showed senescence associated β-galactosidase activity at pH 6"}]}
